How the values were obtained:
Type in all cases: cell-based
[1] = test system: −1 PRF signal of SARS-CoV-2
[2] = test system: B.1.1.7 SARS-CoV-2
[3] = test system: SARS-CoV-2; experiment: Antiviral plaque assay in Vero-E6 cells; settings: Severe acute respiratory syndrome coronavirus 2, Vero C1008, read-out: EC50 (95% CI), SARS-CoV-2 B.1.351 (Beta), Vero-E6

SMILES	-1PRF inhibition with mutated binding pocket [1]	change in the EC50s after 11 passages in presence of geneticin [2]	EC50 [3] [µM]
CCNCC1CCN(c2c(F)cc3c(=O)c(C(=O)O)cn(CC)c3c2F)C1 (stereo not shown) [Merafloxacin]	significant loss of -1PRF inhibition	–	–
CN[C@@H]1[C@@H](O)[C@@H](O[C@@H]2[C@@H](O)[C@H](O[C@H]3O[C@H]([C@@H](C)O)[C@@H](O)[C@H](O)[C@H]3N)[C@@H](N)C[C@H]2N)OC[C@]1(C)O [Geneticin]	significant loss of -1PRF inhibition	did not observe any significant change in the EC50s	129

Reference: PMC9617636 (Antiviral Research, 2022)
